Measurements reported in US8815881B2 (Hoffmann-La Roche Inc., priority 2010, dated 2014).

These compounds were tested against endogenous cellular BACE2 in the Ins1e rat cell line (Rattus norvegicus (Rat), UniProt Q6IE75) (assay: Assay for BACE inhibition by measuring cellular TMEM27 cleavage (ELISA of shed hTMEM27 from INS-TMEM27 cells)). Conditions: assay a): cellular TMEM27 cleavage, INS-TMEM27 cells (superscript a).
Format: cell-based
Description: a) Assay for BACE Inhibition by Measuring Cellular TMEM27 Cleavage:
The assay uses the principle of inhibition of human TMEM27 cleavage by endogenous cellular BACE2 in the Ins1e rat cell line and shedding from the cell surface into the culture medium, followed by detection in an ELISA assay. Inhibition of BACE2 prevents the cleavage and shedding in a dose-dependent manner.
The stable cell line “INS-TMEM27” represents an INS1e-derived cell line with inducible expression (using the TetOn system) of full-length hTMEM27 in a doxycycline-dependent manner. The cells are cultured throughout the experiment in RPMI1640+Glutamax (Invitrogen) Penicillin/Streptomycin, 10% Fetal bovine serum, […], […], 100 micrograms/ml G418 and 100 microgram/ml hygromycin and are grown inadherent culture at 37° C. in a standard CO2 cell culture incubator.
INS-TMEM27 cells are seeded in 96-well plates. After 2 days in culture, BACE2 inhibitor is added in a range of concentrations as required by the assay and after a further two hours, doxycycline is added to a final concentration of 500 ng/ml. The cells are incubated for a further 46 hours and the supernatant harvested for detection of shed TMEM27.
An ELISA assay (using a pair of mouse anti-human-TMEM27 antibodies, raised against the extracellular domain of TMEM27) is used for detection of TMEM27 in the culture medium. An EC50 for BACE2 inhibition is calculated using the ELISA readout for each inhibitor concentration with standard curve-fitting software such as XLFit for the Excel spreadsheet program.

endogenous cellular BACE2 in the Ins1e rat cell line, sequence (Q6IE75 63-514): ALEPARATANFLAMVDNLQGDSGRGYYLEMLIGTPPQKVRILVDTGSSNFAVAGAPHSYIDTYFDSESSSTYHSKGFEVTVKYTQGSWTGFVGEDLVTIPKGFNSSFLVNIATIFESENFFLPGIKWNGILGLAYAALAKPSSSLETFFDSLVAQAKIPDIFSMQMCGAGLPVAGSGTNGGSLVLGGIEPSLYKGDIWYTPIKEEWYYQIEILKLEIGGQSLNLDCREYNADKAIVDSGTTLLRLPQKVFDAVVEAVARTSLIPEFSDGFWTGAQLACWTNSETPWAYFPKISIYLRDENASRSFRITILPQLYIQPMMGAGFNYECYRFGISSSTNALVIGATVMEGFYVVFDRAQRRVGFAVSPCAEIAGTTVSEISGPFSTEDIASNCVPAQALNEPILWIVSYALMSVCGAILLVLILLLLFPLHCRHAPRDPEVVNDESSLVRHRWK

Row | Structure (SMILES) | IC50 [nM]
1 | COc1cccc(Nc2ccc(F)c([C@@]3(C)N=C(N)N(C)C(=O)C3(C)C)c2)c1 [Example 79, (S)-2-Amino-6-(2-fluoro-5-(3-methoxyphenylamino)phenyl)-3,5,5,6-tetramethyl-5,6-dihydropyrimidin-4(3H)-one] | 44
2 | CN1C(=O)C(C)(C)[C@@](C)(c2cc(Nc3ccccc3C#N)ccc2F)N=C1N [Example 103, (S)-2-(3-(2-Amino-1,4,5,5-tetramethyl-6-oxo-1,4,5,6-tetrahydropyrimidin-4-yl)-4-fluorophenylamino)benzonitrile] | 1
3 | CN1C(=O)C(C)(C)[C@@](C)(c2cc(NC3CCCC3C#N)ccc2F)N=C1N (stereo partly drawn) [Example 135, 2-[3-((S)-2-Amino-1,4,5,5-tetramethyl-6-oxo-1,4,5,6-tetrahydro-pyrimidin-4-yl)-4-fluoro-phenylamino]-cyclopentanecarbonitrile] | 1
4 | CN1C(=O)C(C)(C)[C@@](C)(c2cc(NC(=O)[C@H]3CC3(F)F)ccc2F)N=C1N [Example 9, (R)-2,2-Difluoro-cyclopropanecarboxylic acid [3-((S)-2-amino-1,4,5,5-tetramethyl-6-oxo-1,4,5,6-tetrahydro-pyrimidin-4-yl)-4-fluoro-phenyl]-amide] | 25
5 | CC(Nc1ccc(F)c([C@@]2(C)N=C(N)N(C)C(=O)C2(C)C)c1)c1ncccn1 (stereo partly drawn) [Example 80, (S)-2-Amino-6-[2-fluoro-5-(1-pyrimidin-2-yl-ethylamino)-phenyl]-3,5,5,6-tetramethyl-5,6-dihydro-3H-pyrimidin-4-one] | 44
6 | CN1C(=O)C(C)(C)[C@@](C)(c2cc(NC3COc4cc(Cl)ccc43)ccc2F)N=C1N (stereo partly drawn) [Example 133, (S)-2-Amino-6-[5-(6-chloro-2,3-dihydro-benzofuran-3-ylamino)-2-fluoro-phenyl]-3,5,5,6-tetramethyl-5,6-dihydro-3H-pyrimidin-4-one] | 41
7 | CN1C(=O)C(C)(C)[C@@](C)(c2cc(Nc3ccnn3C)ccc2F)N=C1N [Example 36, (S)-2-Amino-6-[2-fluoro-5-(2-methyl-2H-pyrazol-3-ylamino)-phenyl]-3,5,5,6-tetramethyl-5,6-dihydro-3H-pyrimidin-4-one] | 535
8 | CN1C(=O)C(C)(C)[C@@](C)(c2cc(NC3CCCC3)ccc2F)N=C1N [Example 21, (S)-2-Amino-6-(5-(cyclopentylamino)-2-fluorophenyl)-3,5,5,6-tetramethyl-5,6-dihydropyrimidin-4(3H)-one] | 14
9 | CN1C(=O)C(C)(C)[C@@](C)(c2cc(NC(=O)C(O)(C(F)(F)F)C(F)(F)F)ccc2F)N=C1N [Example 148, (S)—N-(3-(2-amino-1,4,5,5-tetramethyl-6-oxo-1,4,5,6-tetrahydropyrimidin-4-yl)-4-fluorophenyl)-3,3,3-trifluoro-2-hydroxy-2-(trifluoromethyl)propanamide] | 497
10 | CN1C(=O)C(C)(C)[C@@](C)(c2cc(NC3COc4ccccc43)ccc2F)N=C1N (stereo partly drawn) [Example 51, (6S)-2-amino-6-(5-(2,3-dihydrobenzofuran-3-ylamino)-2-fluorophenyl)-3,5,5,6-tetramethyl-5,6-dihydropyrimidin-4(3H)-one] | 73
11 | CN1C(=O)C(C)(C)[C@@](C)(c2cccc(NC(=O)C3(C(F)(F)F)CC3)c2)N=C1N [Example 2, 1-Trifluoromethyl-cyclopropanecarboxylic acid [3-((R)-2-amino-1,4,5,5-tetramethyl-6-oxo-1,4,5,6-tetrahydro-pyrimidin-4-yl)-phenyl]-amide] | 82
12 | CC(=O)N1CC(Nc2ccc(F)c([C@@]3(C)N=C(N)N(C)C(=O)C3(C)C)c2)c2ccc(F)cc21 (stereo partly drawn) [Example 137, (S)-6-[5-(1-Acetyl-6-fluoro-2,3-dihydro-1H-indol-3-ylamino)-2-fluoro-phenyl]-2-amino-3,5,5,6-tetramethyl-5,6-dihydro-3H-pyrimidin-4-one] | 124
13 | CN1C(=O)C(C)(C)[C@@](C)(c2cc(NC3CCc4cccc(F)c43)ccc2F)N=C1N (stereo partly drawn) [Example 63, (6S)-2-Amino-6-(2-fluoro-5-(7-fluoro-2,3-dihydro-1H-inden-1-ylamino)phenyl)-3,5,5,6-tetramethyl-5,6-dihydropyrimidin-4(3H)-one] | 21
14 | CN1C(=O)C(C)(C)[C@@](C)(c2cc(Nc3ccc(F)cc3)ccc2F)N=C1N [Example 89, (S)-2-Amino-6-[2-fluoro-5-(4-fluoro-phenylamino)-phenyl]-3,5,5,6-tetramethyl-5,6-dihydro-3H-pyrimidin-4-one] | 1140
15 | CN1C(=O)C(C)(C)[C@@](C)(c2cc(NC3CCC(CC(=O)O)C3(C)C)ccc2F)N=C1N (stereo partly drawn) [Example 116, 2-(3-(3-((S)-2-Amino-1,4,5,5-tetramethyl-6-oxo-1,4,5,6-tetrahydropyrimidin-4-yl)-4-fluorophenylamino)-2,2-dimethylcyclopentyl)acetic acid] | 2160
16 | CN1C(=O)C(C)(C)[C@@](C)(c2cc(NC3CS(=O)(=O)c4ccccc43)ccc2F)N=C1N (stereo partly drawn) [Example 144, (S)-2-Amino-6-[5-(1,1-dioxo-2,3-dihydro-1H-1-benzo[b]thiophen-3-ylamino)-2-fluoro-phenyl]-3,5,5,6-tetramethyl-5,6-dihydro-3H-pyrimidin-4-one] | 3
17 | CC(Nc1ccc(F)c([C@@]2(C)N=C(N)N(C)C(=O)C2(C)C)c1)C1CC1 (stereo partly drawn) [Example 37, (S)-2-Amino-6-[5-(1-cyclopropyl-ethylamino)-2-fluoro-phenyl]-3,5,5,6-tetramethyl-5,6-dihydro-3H-pyrimidin-4-one] | 39
18 | Cc1nc(CNc2ccc(F)c([C@@]3(C)N=C(N)N(C)C(=O)C3(C)C)c2)co1 [Example 109, (S)-2-Amino-6-{2-fluoro-5-[(2-methyl-oxazol-4-ylmethyl)-amino]-phenyl}-3,5,5,6-tetramethyl-5,6-dihydro-3H-pyrimidin-4-one] | 45
19 | CN1C(=O)C(C)(C)[C@@](C)(c2cc(NC(=O)[C@@H]3CC3(F)F)ccc2F)N=C1N [Example 10, (S)-2,2-difluoro-cyclopropanecarboxylic acid [3-((S)-2-amino-1,4,5,5-tetramethyl-6-oxo-1,4,5,6-tetrahydro-pyrimidin-4-yl)-4-fluoro-phenyl]-amide] | 2
20 | CN1C(=O)C(C)(C)[C@@](C)(c2cc(NC3CCc4cc(F)ccc43)ccc2F)N=C1N (stereo partly drawn) [Example 35, (6S)-2-Amino-6-(2-fluoro-5-(5-fluoro-2,3-dihydro-1H-inden-1-ylamino)phenyl)-3,5,5,6-tetramethyl-5,6-dihydropyrimidin-4(3H)-one] | 84
21 | CN1C(=O)C(C)(C)[C@@](C)(c2cc(NC(=O)C(O)C(F)(F)F)ccc2F)N=C1N (stereo partly drawn) [Example 8, N-[3-((S)-2-Amino-1,4,5,5-tetramethyl-6-oxo-1,4,5,6-tetrahydro-pyrimidin-4-yl)-4-fluoro-phenyl]-3,3,3-trifluoro-2-hydroxy-propionamide] | 9
22 | CN1C(=O)C(C)(C)[C@@](C)(c2cc(NC(=O)C3(O)CC3)ccc2F)N=C1N [Example 134, 1-Hydroxy-cyclopropanecarboxylic acid [3-((S)-2-amino-1,4,5,5-tetramethyl-6-oxo-1,4,5,6-tetrahydro-pyrimidin-4-yl)-4-fluoro-phenyl]-amide] | 734
23 | CN1C(=O)C(C)(C)[C@@](C)(c2cc(NC(=O)C3(C(F)(F)F)CC3)ccc2F)N=C1N [Example 5, 1-Trifluoromethyl-cyclopropanecarboxylic acid [3-((S)-2-amino-1,4,5,5-tetramethyl-6-oxo-1,4,5,6-tetrahydro-pyrimidin-4-yl)-4-fluoro-phenyl]-amide] | 11
24 | CN1C(=O)C(C)(C)[C@@](C)(c2cc(NCc3ncccn3)ccc2F)N=C1N [Example 85, (S)-2-Amino-6-{2-fluoro-5-[(pyrimidin-2-ylmethyl)-amino]-phenyl}-3,5,5,6-tetramethyl-5,6-dihydro-3H-pyrimidin-4-one] | 101
25 | CCOC(=O)CC1CCC(Nc2ccc(F)c([C@@]3(C)N=C(N)N(C)C(=O)C3(C)C)c2)C1(C)C (stereo partly drawn) [Example 98, {3-[3-((S)-2-Amino-1,4,5,5-tetramethyl-6-oxo-1,4,5,6-tetrahydro-pyrimidin-4-yl)-4-fluoro-phenylamino]-2,2-dimethyl-cyclopentyl}-acetic acid ethyl ester] | 57
26 | CN1C(=O)C(C)(C)[C@@](C)(c2cc(NC(=O)C(C)(C)F)ccc2F)N=C1N [Example 16, (S)—N-(3-(2-Amino-1,4,5,5-tetramethyl-6-oxo-1,4,5,6-tetrahydropyrimidin-4-yl)-4-fluorophenyl)-2-fluoro-2-methylpropanamide] | 9
27 | CCC1CC(Nc2ccc(F)c([C@@]3(C)N=C(N)N(C)C(=O)C3(C)C)c2)c2ccccc21 (stereo partly drawn) [Example 113, (S)-2-Amino-6-[5-(3-ethyl-indan-1-ylamino)-2-fluoro-phenyl]-3,5,5,6-tetramethyl-5,6-dihydro-3H-pyrimidin-4-one] | 36
28 | CN1C(=O)C(C)(C)[C@@](C)(c2cc(NC(=O)CC(F)(F)F)ccc2F)N=C1N [Example 3, N-[3-((S)-2-Amino-1,4,5,5-tetramethyl-6-oxo-1,4,5,6-tetrahydro-pyrimidin-4-yl)-4-fluoro-phenyl]-3,3,3-trifluoro-propionamide] | 11
